According to US20060217340A1, “Methods and products for treating hypertension by modulation of TRPC3 channel activity” (University of Vermont and State Agricultural College, priority 2005, published 2006):

Columns and labels:
TRPC3 = assay: Western analysis of TRPC3 protein expression in arteries; format: cell-based, rat; conditions: Angiotensin-II hypertensive rats; cerebral and mesenteric arteries
Method: (§1) Western Analysis. Arterial segments were homogenized in lysis buffer (5 minutes, 4° C.) containing (in mM): 40 CAPS, 1 DL-Dithiothreitol (DTT), 10 EDTA, 15 MgCl2, 115 NaCl, 1 NaOrthovanadate, 1 NaF, 2.5 Urea, and 0.25% deoxychlorate, 10% glycerol, 1% NP-40, 0.2% SDS, and 1:50 mammalian protease inhibitor cocktail (Sigma, St. Louis, Mo., USA). Equal amounts of sample protein were separated on a 10% polyacrylamide gel and transferred to a nitrocellulose membrane. The membranes were exposed to a TRPC3 or TRPC6 polyclonal antibody (anti-rabbit 1:200 dilution, Alomone Labs, Jerusalem, Israel) and a […] (GAPDH) monoclonal antibody (anti-mouse, 1:1000 dilution, Chemicon Labs, Temecula, Calif., USA). Alexa-Fluor 680® goat anti-rabbit (Molecular Probes, Eugene, Oreg., USA) and IRDyeTM800 anti-mouse (Rockland Immunochemicals, Gilbertsville, Pa., USA) were used to fluorescently label the TRPC3 and GAPDH antibodies respectively. The density of signals specific for the TRPC3 and GAPDH bands in a given lane on a membrane were measured after scanning the membrane with an Odyssey® infared imaging system (Li-COR Biosciences, Lincoln, Nebr., USA). Quantified amounts were normalized to a total protein amount lane on the polyacrylamide gel.
Oligodeoxynucleotide Sequences and Reverse Permeabilization. TRPC6 sense and antisense oligodeoxynucleotides (ODN's) were designed as previously described (Welsh et al 2002 Circ Res 90, 248-250) and were as follows: sense, 5′-[…]-3′ (SEQ ID: 3) and 5′-GCACACGCAGCCTCTTCAC-3′ (SEQ ID: 4) antisense, 5′-[…]-3′ (SEQ ID: 5) and 5′-[…]-3′ (SEQ ID: 6). TRPC3 sense and antisense ODN's were designed based on the rat TRPC3 gene (Ohki et al 2000 J Biol Chem 275: 39055-39060) and are as follows: sense, 5′-[…]-3′ (SEQ ID: 7) and 5′-[…]-3′ (SEQ ID: 8); anti-sense, 5′-[…]-3′ (SEQ ID: 9) and 5′-[…]-3′ (SEQ ID: 10). The last five bases on the 5′ and 3′ end were phosphorothioated in order to limit ODN degradation. […]

TRPC6 = assay: Western analysis of TRPC6 protein expression in arteries; format: cell-based, rat; conditions: Angiotensin-II hypertensive rats; cerebral arteries
Method: as §1
Oligodeoxynucleotide Sequences and Reverse Permeabilization. […]

[1] = Blood pressure (MAP) by tailcuff; format: in vivo, rat; conditions: 12 days subcutaneous osmotic pump, tailcuff just prior to euthanasia
Method: Animals and tissues. Twelve- to 16-week old male Sprague-Dawley rats, spontaneously hypertensive rats (SHR), and Wistar-Kyoto rats ([…]) (Charles River Laboratories, St. Constant, Canada) were studied. All animal use procedures were in accordance with institutional guidelines and approved by the institutional Animal Care and Use Committee at the University of Vermont. Rats were euthanized with an injection of pentobarbitone (150 mg/kg ip) followed by exsanguination. The brain was removed and cerebellar and cerebral arteries (between 125 and 225 μm diameter) were dissected free in ice-cold MOPS-buffered saline solution containing (in mM): 3 MOPS, 145 NaCl, 5 KCl, 1 MgSO4.7H2O, 2.5 CaCl2, 1 KH2PO4, 0.02 EGTA, 2 pyruvate, 5 glucose and 1% bovine serum albumin (BSA) at pH 7.4. Angiotensin II or a control vehicle (physiological saline solution) was administered for 12 days using a subcutaneous osmotic pump. Blood pressures (MAP) were measured by tailcuff just prior to euthanasia and averaged 93±2 mm Hg in control rats and 146±5 mm Hg in Angiotensin II treated rats.

Angiotensin II (DRVYIHPF; Angiotensin-2; UniProt P01015 25-32, looked up)
expression of TRPC3 versus normotensive controls (TRPC3): trends towards increased expression | expression of TRPC6 versus normotensive controls (TRPC6): increased expression | Blood pressure (MAP) [1]: 146±5 mm Hg
